# Calls of active or inactive are those of the source. The rule behind the calls is not given here.
# How the values were obtained:
# Escherichia coli = assay: Antibacterial activity against penicillin-susceptible Escherichia coli ATCC 25922 by standard broth microdilution method; type: functional
# Streptococcus pneumoniae [1] = assay: Antibacterial activity against erythromycin-resistant Streptococcus pneumoniae AB11 expressing ermB and me/A genes by standard broth microdilution method; type: functional
# Bacillus subtilis [2] = assay: Antibacterial activity against penicillin-susceptible Bacillus subtilis ATCC 9372 by standard broth microdilution method; type: functional
# Staphylococcus aureus [3] = assay: Antibacterial activity against erythromycin-susceptible Staphylococcus aureus ATCC 25923 by standard broth microdilution method; type: functional
# Streptococcus pyogenes [4] = assay: Potency index, ratio of MIC of CAM to MIC of compound for antibacterial activity against erythromycin resistant Streptococcus pyogenes R1; type: functional
# Staphylococcus aureus [5] = assay: Antibacterial activity against methicillin-resistant Staphylococcus aureus ATCC 43300 by standard broth microdilution method; type: functional
# Streptococcus pyogenes [6] = assay: Potency index, ratio of MIC of AZM to MIC of compound for antibacterial activity against erythromycin resistant Streptococcus pyogenes R1; type: functional
# Streptococcus pyogenes [7] = assay: Antibacterial activity against erythromycin resistant Streptococcus pyogenes R1 by standard broth microdilution method; type: functional
# Streptococcus pneumoniae [8] = assay: Antibacterial activity against erythromycin-resistant Streptococcus pneumoniae B1 expressing ermB gene by standard broth microdilution method; type: functional
# Pseudomonas aeruginosa = assay: Antibacterial activity against penicillin-susceptible Pseudomonas aeruginosa ATCC 27853 by standard broth microdilution method; type: functional
# Staphylococcus aureus [9] = assay: Potency index, ratio of MIC of CAM to MIC of compound for antibacterial activity against methicillin-resistant Staphylococcus aureus ATCC 43300; type: functional
# Streptococcus pneumoniae [10] = assay: Potency index, ratio of MIC of CAM to MIC of compound for antibacterial activity against erythromycin-resistant Streptococcus pneumoniae AB11 expressing ermB and me/A genes; type: functional
# Streptococcus pneumoniae [11] = assay: Potency index, ratio of MIC of AZM to MIC of compound for antibacterial activity against erythromycin-resistant Streptococcus pneumoniae AB11 expressing ermB and me/A genes; type: functional
# Staphylococcus aureus [12] = assay: Potency index, ratio of MIC of AZM to MIC of compound for antibacterial activity against methicillin-resistant Staphylococcus aureus ATCC 43300; type: functional
# Streptococcus pneumoniae [13] = assay: Bactericidal activity against erythromycin-resistant Streptococcus pneumoniae AB11 expressing ermB and me/A genes; type: functional
# Streptococcus pneumoniae [14] = assay: Ratio of MBC for erythromycin-resistant Streptococcus pneumoniae AB11 expressing ermB and me/A genes to MIC for erythromycin-resistant Streptococcus pneumoniae AB11 expressing ermB and me/A genes; type: functional
# Bacillus subtilis [15] = assay: Ratio of MBC for penicillin-susceptible Bacillus subtilis ATCC 9372 to MIC for penicillin-susceptible Bacillus subtilis ATCC 9372; type: functional
# Bacillus subtilis [16] = assay: Bactericidal activity against penicillin-susceptible Bacillus subtilis ATCC 9372; type: functional
# Streptococcus pneumoniae [17] = assay: Bactericidal activity against erythromycin-resistant Streptococcus pneumoniae AB11 expressing ermB and me/A genes at 1 to 4 times of MIC incubated for 9 hrs by time-kill curve assay; type: functional, organism-based
# Streptococcus pneumoniae [18] = assay: Bacteriostatic activity against erythromycin-resistant Streptococcus pneumoniae AB11 expressing ermB and me/A genes at 1 to 4 MIC incubated for 9 to 24 hrs by time-kill curve assay; type: functional, organism-based
Compound,MIC (Escherichia coli),MIC (Streptococcus pneumoniae [1]),MIC (Bacillus subtilis [2]),MIC (Staphylococcus aureus [3]),Ratio (Streptococcus pyogenes [4]),MIC (Staphylococcus aureus [5]),Ratio (Streptococcus pyogenes [6]),MIC (Streptococcus pyogenes [7]),MIC (Streptococcus pneumoniae [8]),MIC (Pseudomonas aeruginosa),Ratio (Staphylococcus aureus [9]),Ratio (Streptococcus pneumoniae [10]),Ratio (Streptococcus pneumoniae [11]),Ratio (Staphylococcus aureus [12]),MBC (Streptococcus pneumoniae [13]),Ratio (Streptococcus pneumoniae [14]),Ratio (Bacillus subtilis [15]),MBC (Bacillus subtilis [16]),Activity (Streptococcus pneumoniae [17]),Activity (Streptococcus pneumoniae [18])
CCCCc1ccc(-c2cn(CCNC(=O)O[C@@H]3[C@@H](C)C(=O)[C@H](C)C[C@@](C)(OC)[C@H](O[C@H]4O[C@@H](C)C[C@@H](N(C)C)[C@@H]4O)[C@@H](C)C(=O)[C@@H](C)C(=O)O[C@H](CC)[C@@]3(C)O)nn2)cc1,> 128 µg/mL,64 µg/mL,4 µg/mL,16 µg/mL,8 - 16,256 µg/mL,8 - 16,32 µg/mL,128 µg/mL,128 µg/mL,,,,,,,,,,
CCCCc1ccc(-c2cn(CCCNC(=O)O[C@@H]3[C@@H](C)C(=O)[C@H](C)C[C@@](C)(OC)[C@H](O[C@H]4O[C@@H](C)C[C@@H](N(C)C)[C@@H]4O)[C@@H](C)C(=O)[C@@H](C)C(=O)O[C@H](CC)[C@@]3(C)O)nn2)cc1,> 128 µg/mL,32 µg/mL,2 µg/mL,16 µg/mL,8 - 16,64 µg/mL,8 - 16,16 µg/mL,32 µg/mL,128 µg/mL,>4,4 - 8,8 - 16,>4,,,,,,
CC[C@H]1OC(=O)[C@H](C)C(=O)[C@H](C)[C@@H](O[C@H]2O[C@@H](C)C[C@@H](N(C)C)[C@@H]2O)[C@](C)(OC)C[C@@H](C)C(=O)[C@H](C)[C@@H](OC(=O)NCCCn2cc(-c3cccc(Br)c3)nn2)[C@]1(C)O,> 128 µg/mL,32 µg/mL,2 µg/mL,8 µg/mL,8 - 16,128 µg/mL,8 - 16,32 µg/mL,64 µg/mL,128 µg/mL,,4 - 8,8 - 16,,,,,,,
CC[C@H]1OC(=O)[C@H](C)C(=O)[C@H](C)[C@@H](O[C@H]2O[C@@H](C)C[C@@H](N(C)C)[C@@H]2O)[C@](C)(OC)C[C@@H](C)C(=O)[C@H](C)[C@@H](OC(=O)NCCCn2cc(-c3cccc(N)c3)nn2)[C@]1(C)O,> 128 µg/mL,32 µg/mL,4 µg/mL,16 µg/mL,,> 256 µg/mL,,128 µg/mL,128 µg/mL,128 µg/mL,,4 - 8,8 - 16,,,,,,,
CC[C@H]1OC(=O)[C@H](C)C(=O)[C@H](C)[C@@H](O[C@H]2O[C@@H](C)C[C@@H](N(C)C)[C@@H]2O)[C@](C)(OC)C[C@@H](C)C(=O)[C@H](C)[C@@H](OC(=O)NCCCn2cc(-c3ccccc3OC)nn2)[C@]1(C)O,> 128 µg/mL,32 µg/mL,2 µg/mL,8 µg/mL,,> 256 µg/mL,,64 µg/mL,256 µg/mL,128 µg/mL,,4 - 8,8 - 16,,,,,,,
CC[C@H]1OC(=O)[C@H](C)[C@@H](O[C@H]2C[C@@](C)(OC)[C@@H](O)[C@H](C)O2)[C@H](C)[C@@H](O[C@@H]2O[C@H](C)C[C@H](N(C)C)[C@H]2O)[C@](C)(OC)C[C@@H](C)C(=O)[C@H](C)[C@@H](O)[C@]1(C)O [CLARITHROMYCIN],> 128 µg/mL,128 µg/mL,0.25 µg/mL,0.25 µg/mL,,> 256 µg/mL,,256 µg/mL,> 256 µg/mL,32 µg/mL,,,,,256 µg/mL,16,128,128 µg/mL,,
CC[C@H]1OC(=O)[C@H](C)C(=O)[C@H](C)[C@@H](O[C@H]2O[C@@H](C)C[C@@H](N(C)C)[C@@H]2O)[C@](C)(OC)C[C@@H](C)C(=O)[C@H](C)[C@@H](OC(=O)NCCn2cc(-c3ccc(-c4ccccc4)cc3)nn2)[C@]1(C)O,> 128 µg/mL,64 µg/mL,4 µg/mL,32 µg/mL,8 - 16,128 µg/mL,8 - 16,32 µg/mL,128 µg/mL,128 µg/mL,,,,,,,,,,
CC[C@H]1OC(=O)[C@H](C)C(=O)[C@H](C)[C@@H](O[C@H]2O[C@@H](C)C[C@@H](N(C)C)[C@@H]2O)[C@](C)(OC)C[C@@H](C)C(=O)[C@H](C)[C@@H](OC(=O)NCCCn2cc(-c3ccc(Cl)cc3)nn2)[C@]1(C)O,> 128 µg/mL,16 µg/mL,1 µg/mL,4 µg/mL,8 - 16,128 µg/mL,8 - 16,32 µg/mL,64 µg/mL,128 µg/mL,,4 - 8,8 - 16,,128 µg/mL,1,512,128 µg/mL,Active,Dose-dependent effect
CC[C@H]1OC(=O)[C@H](C)C(=O)[C@H](C)[C@@H](O[C@H]2O[C@@H](C)C[C@@H](N(C)C)[C@@H]2O)[C@](C)(OC)C[C@@H](C)C(=O)[C@H](C)[C@@H](OC(=O)NCCn2cc(-c3cccc(Cl)c3)nn2)[C@]1(C)O,> 128 µg/mL,128 µg/mL,4 µg/mL,8 µg/mL,,256 µg/mL,,64 µg/mL,128 µg/mL,128 µg/mL,,,,,,,,,,
CC[C@H]1OC(=O)[C@H](C)C(=O)[C@H](C)[C@@H](O[C@H]2O[C@@H](C)C[C@@H](N(C)C)[C@@H]2O)[C@](C)(OC)C[C@@H](C)C(=O)[C@H](C)[C@@H](OC(=O)NCCCn2cc(-c3ccc(C(C)(C)C)cc3)nn2)[C@]1(C)O,> 128 µg/mL,64 µg/mL,16 µg/mL,16 µg/mL,8 - 16,128 µg/mL,8 - 16,32 µg/mL,64 µg/mL,128 µg/mL,,,,,,,,,,
CC[C@H]1OC(=O)[C@H](C)C(=O)[C@H](C)[C@@H](O[C@H]2O[C@@H](C)C[C@@H](N(C)C)[C@@H]2O)[C@](C)(OC)C[C@@H](C)C(=O)[C@H](C)[C@@H](OC(=O)NCCn2cc(-c3ccc(F)cc3)nn2)[C@]1(C)O,> 128 µg/mL,128 µg/mL,4 µg/mL,16 µg/mL,,> 256 µg/mL,,64 µg/mL,256 µg/mL,128 µg/mL,,,,,,,,,,
CC[C@H]1OC(=O)[C@H](C)C(=O)[C@H](C)[C@@H](O[C@H]2O[C@@H](C)C[C@@H](N(C)C)[C@@H]2O)[C@](C)(OC)C[C@@H](C)C(=O)[C@H](C)[C@@H](OC(=O)NCCn2cc(-c3ccccc3OC)nn2)[C@]1(C)O,> 128 µg/mL,> 256 µg/mL,4 µg/mL,16 µg/mL,,> 256 µg/mL,,256 µg/mL,> 256 µg/mL,128 µg/mL,,,,,,,,,,

# Source: ChEMBL document CHEMBL4602639, “A novel series of 11-O-carbamoyl-3-O-descladinosyl clarithromycin derivatives bearing 1,2,3-triazole group: Design, synthesis and antibacterial evaluation” (2020)
